Assay results from ChEMBL document CHEMBL1201862, “PubChem BioAssay data set” (2004).
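Compound exposure: 48 hours, 5 concentrations, 96-well plates. GI50 marks 50% less growth.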 The source made the active and inactive calls. No stated cut-off is given here; in the data, active = GI50 up to about 1.1 µM and inactive = higher.

Assays:
Experiment in all cases: NCI anticancer screen, dose series, 48 h
SN12C = system: SN12C
HOP-92 = system: HOP-92
Malme-3M = system: Malme-3M
OVCAR-5 = system: OVCAR-5
EKVX = system: EKVX
SNB-19 = system: SNB-19
UACC-257 = system: UACC-257
OVCAR-3 = system: OVCAR-3
RPMI-8226 = system: RPMI-8226
HCC 2998 = system: HCC 2998
OVCAR-8 = system: OVCAR-8
SW-620 = system: SW-620
BT-549 = system: BT-549
A498 = system: A498
MDA-MB-435 = system: MDA-MB-435
CAKI-1 = system: CAKI-1
NCI-H460 = system: NCI-H460
UO-31 = system: UO-31
M14 = system: M14
SF-268 = system: SF-268

Measured: GI50

COc1ccc(OC)c(C2Cc3cnc4nc(N)nc(N)c4c3C2)c1 (stereo not given)
inactive: SN12C 21.7 µM | HOP-92 24.3 µM | Malme-3M 20.8 µM | OVCAR-5 32.9 µM | EKVX 25.6 µM | SNB-19 38.4 µM | UACC-257 18.3 µM | OVCAR-3 20.5 µM | RPMI-8226 29.6 µM | HCC 2998 26.3 µM | OVCAR-8 26.2 µM | SW-620 33.2 µM | BT-549 22.8 µM | A498 16.9 µM | MDA-MB-435 26.1 µM | CAKI-1 76.9 µM | NCI-H460 26.5 µM | UO-31 71.9 µM | M14 36.1 µM | SF-268 34.2 µM

O=C(CC(=O)N(C(=O)c1ccccc1)c1ccc(Cl)cc1)N/N=C\c1ccccc1O
inactive: SN12C > 100 µM | HOP-92 24.6 µM | Malme-3M > 100 µM | OVCAR-5 36.6 µM | EKVX 37 µM | SNB-19 30.3 µM | UACC-257 > 100 µM | OVCAR-3 > 100 µM | RPMI-8226 > 100 µM | HCC 2998 33.6 µM | OVCAR-8 35.2 µM | SW-620 > 100 µM | BT-549 21.1 µM | A498 65 µM | MDA-MB-435 > 100 µM | CAKI-1 > 100 µM | NCI-H460 96.2 µM | UO-31 38.7 µM | M14 > 100 µM | SF-268 24.8 µM
